System: Human lung cancer cell line H460
Test: Cytotoxicity test on cancer cells (water-soluble tetrazolium salt colorimetric assay)
Type: cell-based
Details: for IC50: Homo sapiens, NCI-H460, H460 cells, compound alone without radiation, after a lapse of 72 hours, read-out: IC50 value, the concentration where 50% cells are killed; for cytotoxic effect when applied alone: cancer cell line H460, without the combined radiation treatment
Experimental: Human lung cancer cell line H460 was used in the present test. Firstly, the H460 cell line was cultured in RPMI 1640 medium with 100 U/mL of penicillin, […] of streptomycin and 10% FBS, under the condition of 37° C. and 5% CO2 atmosphere. The cultured cells were placed on a 96-well-plate at the initial cell density of about 2×10^3 cells. In about 24 hours, the cells on the 96-well-plate were treated with the compound 1 and the compound 7 at a designated concentration for 48 hours. The relative cell viability was quantitatively determined by a colorimetric assay using a water-soluble tetrazolium salt. Optical density at 450 nm was measured by an automatic micro plate reader. The results were represented in FIGS. 1 and 2 in the drawings attached to the present specification. As shown in the test example 1, FIG. 1 and FIG. 2, the lung cancer cell line (H460) was treated with the compound 1 (MeSe-T), then after a lapse of 72 hours, IC50 value thereof, that is the concentration where 50% cells are killed, were about 100 μM.

Q: With `C[Se]Cc1cn([C@H]2CC(O)[C@@H](CO)O2)c(=O)[nH]c1=O` (stereo partly shown) [compound 1, 5-methylselenyl-methyl-2′-deoxy uridine] as the molecule, how does the IC50 read?
A: Its IC50 is ~100 µM.

Q: And the “cytotoxic effect when applied alone” value?
A: Its value is “weak cytotoxic effect”.

Q: Which IC50 does the source give for `O=c1[nH]c(=O)n([C@H]2CC(O)[C@@H](CO)O2)cc1C[Se]c1ccccc1` (stereo partly shown) [compound 7, 5-phenylselenyl-methyl-2′-deoxy uridine] here?
A: Its IC50 is ~500 µM.

Q: And the “cytotoxic effect when applied alone” value?
A: The value was “weak cytotoxic effect”.
